Assay results from patent US20200270309A1, “MALEIMIDE GROUP-MODIFIED ANGIOGENESIS INHIBITOR HM-1 AND USE THEREOF” (NANJING ANJI BIOLOGICAL TECHNOLOGY CO., LTD, priority 2017, published 2020).
Marks after values point to notes of the source that are not given here. Peptide text beside a SMILES is read from it. * marks the point of attachment. X74 = O=C1C=CC(=O)N1c1cccc(CCCCCCCCCCC(=O)*)c1; X60 = O=C1C=CC(=O)N1c1ccccc1CCCCCCCCCC(=O)*; X54 = O=C1C=CC(=O)N1c1cccc(CCCCCCC(=O)*)c1

Tests used:
[1] = Half-lives and pharmacokinetic parameters of polypeptides vs HM-1; details: in vivo; for half-life: T1/2β (half-life)
HUVECs = assay: Transwell migration inhibition on HUVECs; assay type: cell-based, human; details: for Inhibition rate (%): HUVEC migration vs blank control; for Cell migration number (Mean ± SD): HUVECs, transwell, 24 h
[2] = test system: IL-1β production by mouse peritoneal macrophages; assay: IL-1β production by mouse peritoneal macrophages (ELISA); assay type: cell-based; details: for Inhibition rate: IL-1β production, vs model group; for IL-1β: mouse peritoneal macrophages, 48 h, ELISA
Experimental: Mice were injected intraperitoneally with 1 mL of broth culture medium (containing 6% of starch). Three days later, mice peritoneal macrophages were taken aseptically and washed twice with 1640 culture medium, and the cell concentration was adjusted to 2×10^6 cells/mL. The solutions were injected into 24-well culture plates at 1 mL per well. The cells were incubated in a cell incubator for 3 h and vibrated once every 30 min to make the cells fully adhere to the wall. Then, the cells were washed twice with a culture solution to remove non-adhered cells. PBS was added to the blank group, positive drug Dex was added to the positive group, no drug was added to the model group, and polypeptides X1-X90 with low, medium and high concentrations were added to the test groups; and the cells were continuously cultured for 48 h after administration, and then centrifuged at 1000 r/min for 15 min. The supernatant was collected as a sample to be tested for IL-1β activity.

[3] = test system: xylene-induced ear swelling; assay: Xylene-induced mouse ear swelling; assay type: in vivo; details: Kunming mice, injected once a day for 5 days; for Swelling degree (mg) / Swelling degree: right minus left ear piece weight 2 h after xylene; for Inhibition rate (%): xylene-induced ear swelling
Experimental: Kunming mice were taken, a normal saline group was taken as a blank control group, an aspirin group (200 mg/kg) was taken as a positive control group, and X1-X90 administration groups were taken as test groups. The mice were injected once a day for 5 consecutive days. The blank control group was given an equal volume of normal saline. One hour after the last administration, 0.05 mL of xylene was applied to both sides of the right ear of each mouse to cause inflammation, while no drug was applied to the left ear as a normal ear. Two hours later, the mice were put to death by dislocation. Two ears were cut along the auricle. Ear pieces were taken with a puncher and weighed, and the swelling degree and the swelling rate were calculated. Swelling degree=right ear piece weight-left ear piece weight, swelling rate=(swelling degree/left ear piece weight)*100%. Statistical t-test was conducted on the experimental results. *P<0.05 indicates significant difference, and **P<0.01 indicates extremely significant difference.

[4] = test system: collagen-induced arthritis; assay: Mouse collagen-induced arthritis (CIA) animal model; assay type: in vivo; details: DBA/1 mice CIA model, dose 4.0 mg/kg, subcutaneous from day 30, n=10; for Clinical score: highest score 16
[5] = test system: retinal neovascularization (OIR model); assay: Retinal vessels in OIR mice; assay type: in vivo, C57/B16 mice; details: for Area of neovascular plexus (mm^2): dose 0.05 μM in the vitreous chamber on day 13, retinal vessels evaluated on day 17; for Inhibition rate (%): dose 0.05 μM in the vitreous chamber on day 13, retinal vessels evaluated on day 17, vs negative control
From the text: Establishment of an OIR model: Young mice and their mothers were exposed in a 75% hyperoxic environment from day 7 to day 12 after the birth of C57/B16 mice, which caused capillaries in their central retina to disappear rapidly. The mice were returned to the indoor air on day 12, retinal vessels exposed to hyperoxia quickly disappeared, causing extensive abnormal neoangiogenesis, and the central part of the retina remained largely avascular for a long time. After the blood vessels disappeared completely, the mice were injected with normal saline (a negative group), X1-X12, X13-X44, X45-X90 in the vitreous chamber on day 13 respectively, and retinal vessels were evaluated on day 17 ([…] of Texas red labeled tomato agglutinin was injected into the left ventricle to mark unclosed vessels and circulated for 5 min).

[6] = test system: retinal vascular endothelial nuclei; assay: Neovascularization in a rat model of premature retinopathy; assay type: in vivo, rats; details: dose 0.05 μM in the vitreous chamber from day 7 of modeling for one week; counted on day 14; oxygen-induced neonatal rats
Experimental: Using a fluctuating oxygen-induced animal model, newborn rats born naturally on the same day (within 12 h) were randomly divide into three groups: an oxygen model group, an oxygen treatment group and a normal control group. The oxygen model was further divided into three sub-group model groups, and the sub-group model groups and the treatment group were all placed in a semi-closed oxygen chamber made of organic glass; medical oxygen was introduced into the chamber, and the concentration was adjusted to 80%±2% by an oxygen meter; nitrogen was introduced into the oxygen chamber after 24 h, and the oxygen concentration was adjusted to 10%±2% rapidly and maintained for 24 h. This was repeated to keep the oxygen concentration in the oxygen chamber alternating between 80% and 10% every 24 h, the oxygen concentration was maintained for 7 d, and then the rats were fed in the air. The oxygen concentration was monitored 8 times a day, and the ambient temperature in the chamber was controlled at 23° C.±2° C. Bedding was replaced, feed was added, and water and mother rats were replaced once. The normal control group was placed in the animal room feeding environment. […] The oxygen treatment group was divided into three subgroups. On day 7 of modeling, X1-[…], […]-[…] and […]-X90 were injected in the vitreous chamber respectively, and the oxygen model group and the control group were only given normal saline for one week. On day 14, after the rats were anesthetized by diethyl ether and killed, eyeballs were extracted and fixed in 40 g/L paraformaldehyde solution for 24 h. Gradient dehydration by alcohol was performed, and the eyeballs were processed by xylene to be transparent. After waxing, the eyeballs were sectioned continuously to a thickness of 4μm, and the periphery of the optic disc should be avoided as much as possible. The sections were parallel to the sagittal plane from cornea to the optic disc. Ten sections of each eyeball were randomly taken and stained with hematoxylin eosin, the number of vascular endothelial nuclei that broke through the inner limiting membrane of the retina (only the number of vascular endothelial nuclei closely related to the inner limiting membrane were counted) was counted, and statistics of the average number of cells per section per eyeball was performed. Results: In the control group, there were no vascular endothelial nuclei that broke through the inner limiting membrane of the retina and grew into vitreous body, or the vascular endothelial nuclei were occasionally found in only a few sections. In the model group, there were many vascular endothelial nuclei that broke through the inner limiting membrane of the retina, some appeared alone, and some appeared in clusters. At the same time, on some sections, these vascular endothelial nuclei were also found adjacent to deep retinal vessels, confirming that they originated from the retina rather than the vitreous body or other ocular tissues. In the treatment group, only a few vascular endothelial nuclei that broke through the inner limiting membrane of retina could be seen in the sections.

SMILES	AUC(0-inf) [1] [ng·h/mL]	MRT inf [1] [h]	clearance [1] [mL/min/kg]	half-life [1] [h]	Inhibition rate (%) (HUVECs; dose 0.05 μM)	Inhibition rate (%) (HUVECs; dose 0.1 μM)	Inhibition rate (%) (HUVECs; dose 0.2 μM)	Inhibition rate ([2]; dose 0.05 μM) [%]	IL-1β ([2]; dose 0.05 μM) [pg/mL]	Inhibition rate ([2]; dose 0.1 μM) [%]	IL-1β ([2]; dose 0.1 μM) [pg/mL]	Inhibition rate ([2]; dose 0.2 μM) [%]	IL-1β ([2]; dose 0.2 μM) [pg/mL]	Inhibition rate (%) ([3]; dose 2 mg/kg)	Inhibition rate (%) ([3]; dose 4 mg/kg)	Swelling degree (mg) ([3]; dose 8 mg/kg)	Inhibition rate (%) ([3]; dose 8 mg/kg)	Joint swelling degree (mm) [4] [mm]	Left and right paw swelling degree (mm) [4] [mm]	Clinical score [4]	further results
C[C@H](NC(=O)CNC(=O)[C@H](CCCNC(=N)N)NC(=O)CCCCCCCCCCc1cccc(N2C(=O)C=CC2=O)c1)C(=O)N[C@@H](CC(=O)O)C(=O)N[C@@H](CCCNC(=N)N)C(=O)N[C@@H](C)C(=O)NCC(=O)NCC(=O)NCC(=O)NCC(=O)N[C@@H](CCCNC(=N)N)C(=O)NCC(=O)N[C@@H](CC(=O)O)C(=O)O [X34] (X74-RGADRAGGGGRGD-OH)	27700 ± 8150	49.6 ± 10.2	0.602	34.35 ± 0.26	47.95	52.08	53.69	18.47	767.28 ± 18.52	19.97	753.21 ± 13.97	28.14	676.31 ± 16.02	38.04	46.07	3.2 ± 0.39** mg	48.64	0.84 ± 0.13	0.72 ± 0.15	8.8 ± 1.34	Cell migration number (Mean ± SD) (HUVECs; dose 0.05 μM): 557.95 ± 42.69; Cell migration number (Mean ± SD) (HUVECs; dose 0.1 μM): 513.64 ± 43.27; Cell migration number (Mean ± SD) (HUVECs; dose 0.2 μM): 496.39 ± 56.37; Swelling degree (mg) ([3]; dose 2 mg/kg): 3.86 ± 0.43** mg; Swelling degree (mg) ([3]; dose 4 mg/kg): 3.36 ± 0.53** mg; Area of neovascular plexus (mm^2) [5]: 0.120 ± 0.014 mm^2; Inhibition rate (%) [5]: 43.40%*; Nuclei count (retinal vascular endothelial nuclei, average per section per eyeball) [6]: 7.292 ± 3.827
C[C@H](NC(=O)CNC(=O)[C@H](CCCNC(=N)N)NC(=O)CCCCCCCCCc1ccccc1N1C(=O)C=CC1=O)C(=O)N[C@@H](CC(=O)O)C(=O)N[C@@H](CCCNC(=N)N)C(=O)N[C@@H](C)C(=O)NCC(=O)NCC(=O)NCC(=O)NCC(=O)N[C@@H](CCCNC(=N)N)C(=O)NCC(=O)N[C@@H](CC(=O)O)C(=O)O [X21] (X60-RGADRAGGGGRGD-OH)	34000 ± 8190	60.9 ± 9.41	0.49	42.24 ± 0.28	48.94	50.61	52.23	17.80	773.58 ± 10.52	32.29	637.22 ± 12.95	44.01	526.94 ± 17.75	13.48	20.22	3.15 ± 0.42** mg	49.44	0.81 ± 0.14	0.83 ± 0.16	8.79 ± 1.43	Swelling degree ([3]; dose 2 mg/kg): 5.39 ± 0.39 mg; Swelling degree (mg) ([3]; dose 4 mg/kg): 4.97 ± 0.14* mg; Area of neovascular plexus (mm^2) [5]: 0.118 ± 0.012 mm^2; Inhibition rate (%) [5]: 44.34%*; Nuclei count (retinal vascular endothelial nuclei, average per section per eyeball) [6]: 7.222 ± 3.567
C[C@H](NC(=O)CNC(=O)[C@H](CCCNC(=N)N)NC(=O)CCCCCCc1cccc(N2C(=O)C=CC2=O)c1)C(=O)N[C@@H](CC(=O)O)C(=O)N[C@@H](CCCNC(=N)N)C(=O)N[C@@H](C)C(=O)NCC(=O)NCC(=O)NCC(=O)NCC(=O)N[C@@H](CCCNC(=N)N)C(=O)NCC(=O)N[C@@H](CC(=O)O)C(=O)O [X30] (X54-RGADRAGGGGRGD-OH)	28300 ± 6880	50.8 ± 10.3	0.588	35.2 ± 0.37	41.12	53.55	53.58	28.30	674.82 ± 10.45	33.96	621.53 ± 19.69	37.33	589.79 ± 19.66	16.69	18.62	3.77 ± 0.38** mg	39.49	0.83 ± 0.16	0.79 ± 0.16	8.73 ± 1.29	Cell migration number (Mean ± SD) (HUVECs; dose 0.05 μM): 631.10 ± 64.04; Cell migration number (Mean ± SD) (HUVECs; dose 0.1 μM): 497.88 ± 65.38; Cell migration number (Mean ± SD) (HUVECs; dose 0.2 μM): 497.56 ± 68.24; Swelling degree ([3]; dose 2 mg/kg): 5.19 ± 0.57 mg; Swelling degree ([3]; dose 4 mg/kg): 5.07 ± 0.49 mg; Area of neovascular plexus (mm^2) [5]: 0.118 ± 0.012 mm^2; Inhibition rate (%) [5]: 44.34%*; Nuclei count (retinal vascular endothelial nuclei, average per section per eyeball) [6]: 8.256 ± 3.403
